This is an account of results in patent publication US20220401460A1, “MODULATING RESISTANCE TO BCL-2 INHIBITORS” (Dana-Farber Cancer Institute, Inc., priority 2018, published 2022).

For assay [1], the system named is OCI-Ly1-S cells. Kind of assay: Cell Titer-Glo viability assay and Chou-Talalay synergy analysis, parental OCI-Ly1-S cells. The class given is cell-based, human.
The test system of another assay is OCI-Ly1-R cells. Kind of assay: Cell Titer-Glo viability assay, venetoclax-resistant OCI-Ly1-R cells. The class given is cell-based, human. Conditions: for restoration of venetoclax sensitivity: combination with venetoclax, OCI-Ly1-R cells. A general note: In ATP-based viability assays light output follows the ATP content of the culture.
The subject of assay [2] is knockout and overexpression OCI-Ly1 cell lines. Briefly: Viability/growth of single-gene knockout and overexpression OCI-Ly1 cell lines. The assay is classed as cell-based, human. The settings on record: individual knockout cell lines vs lines transduced with 2 non-targeting control sgRNAs; P<0.05. Here is the method:
(§1) Cell viability assay. The Cell Titer-Glo Luminescent Cell Viability Assay (Promega) was used to determine the relative number of viable cells after drug treatment. 0.2×10^6 cells/mL were seeded in a 24 well-plate and treated with drugs for 24 or 48 hours. The viability assay was conducted using the manufacturer's protocol after treatment. Values were normalized to DMSO-treated cells. Plates were read on a SpectraMax M3 reader (Molecular Devices).
Cloning of sgRNA vectors. […]
Generation of engineered cell lines. […] As confirmation that the engineered cell lines expressed the expected alterations, Applicants: (i) evaluated the expression of the targeted protein by western-blotting (FIG. 6d), and (ii) for the CRISPR-Cas9 engineered cell lines, performed targeted DNA sequencing for the CRISPR target sites before and after 2 weeks of exposure to venetoclax (100 nM), and assessed the proportion of frameshift indels (FIG. 6g). […] Following PCR, samples were purified with Agencourt AMPure XP beads (Beckman Coulter) and quantified on a Bioanalyzer (Agilent) with High Sensitivity DNA chips. Sample libraries were diluted to 4 nM, pooled, and ran on the Illumina MiSeq platform using single-end sequencing with the following parameters: read 1: 296nt, index 1: 6nt.

Assay [3] relates to OCI-Ly1-S cells. Briefly: Seahorse oxygen consumption (OCR) and extracellular acidification rate (ECAR), OCI-Ly1-S. The class given is cell-based, human. Here is the method: Measurement of oxygen consumption and extracellular acidification rate. For each condition, 1.25×10^5 cells were counted and plated on a Seahorse plate coated with Cell-Tak (Corning Life Sciences) in Seahorse XF DMEM media (Agilent). OCR and ECAR were recorded using a Seahorse XF96 Analyzer (Agilent) for 24 consecutive measurements. OCR is measured before and after the addition of inhibitors to assess mitochondrial function by deriving several parameters of mitochondrial respiration: (i) basal respiration, (ii) ATP-linked respiration and proton leak respiration (after 3 μM oligomycin [Sigma], a complex V inhibitor) and (iii) maximal respiration (after 1 μM carbonyl cyanide m-chlorophenyl hydrazine (CCCP) [Sigma], a protonophore).
To measure the effect of venetoclax on OCR/ECAR, cells were pre-treated for 1 h with […] of zVAD-FMK (Abcam) or left untreated and OCR/ECAR were recorded for 4 measurements before injection of venetoclax at a final concentration of 100 nM. DMSO injection was used as control.

The subject of a further assay is CLL patients. Briefly: CLL patients treated with venetoclax in clinical trials (response, progression). The assay is classed as in vivo, human. The source says:
Human samples. Genomic DNA was isolated (DNAeasy Blood and Tissue Kit, Qiagen) from specimens collected from CLL patients enrolled on clinical trials of venetoclax treatment (NCT01328626, NCT02141282), approved by and conducted in accordance with the principles of the Declaration of Helsinki and with the approval of the Institutional Review Boards (IRB) of the University of Texas/MD Anderson Cancer Center (MDACC; Patients 1, 3, 4) or of Dana-Farber Cancer Institute (DFCI; Patient 2, 5, 6). Blood and/or tissue tumor samples were collected at baseline, before initiation of venetoclax therapy, and at relapse or progression on venetoclax.

Assay [4] concerns ID3 knockout OCI-Ly1 cells. Kind of assay: Viability of single-cell clones from ID3 knockout OCI-Ly1 cells. The settings on record: single cell clones from ID3 knockout line, viability at 24 hours. The assay is classed as cell-based, human. The protocol: as §1
Single-cell cloning of the ID3 knockout. OCI-Ly1 cells was performed using […] dilution strategy. Cells from the bulk ID3 OCI-Ly1 were seeded at a concentration of 0.5 cells/well in a 96-well plate (5 plates per cell line). To investigate the presence of mutations, 6 clones per sgRNA were analyzed by PCR and Sanger sequencing using primers flanking the target sites for the sgRNAs (Forward primer: 5′-[…]-3′ (SEQ ID NO:1); Reverse:5′-[…]-3′ (SEQ ID NO:2)). The absence of ID3 protein were confirmed in clones harboring loss-of-function mutations by western blot (FIG. 8d). Three different knockout single-cell clones for each sgRNA were used for further functional studies.

The mark [5] stands for this setting: 6 CLL patients progressing on venetoclax.

Residues, ends and D or L forms follow the SMILES beside them. *: point of attachment. Cbz = O=C(OCc1ccccc1)*; CH2F = FC*

Turning to `CC1(C)CCC(CN2CCN(c3ccc(C(=O)NS(=O)(=O)c4ccc(NCC5CCOCC5)c([N+](=O)[O-])c4)c(Oc4cnc5[nH]ccc5c4)c3)CC2)=C(c2ccc(Cl)cc2)C1` [venetoclax], the concentration for half-maximal inhibition (IC50) in the assay on OCI-Ly1-S cells [1] (Homo sapiens, parental OCI-Ly1-S cells) stood at 4 nM; with OCI-Ly1-R cells (Homo sapiens, OCI-Ly1-R cells generated by chronic in vitro drug exposure), 1000 nM. In addition, the “median increase in IC50” value in assay [2] amounted to 2.1 fold. In addition, the “decrease in oxygen consumption” value in the assay on OCI-Ly1-S cells [3] (OCI-Ly1-S cells, within 20 minutes after drug exposure, venetoclax 100 nM) came to 2 fold. The “median time to relapse” value in the assay with CLL patients (setting [5]) was 16.4 months. Besides, in the assay with CLL patients (setting [5]), the “range of time to relapse” value is 5.1-22.8 months. In addition, the “Time to progression (months)” value with CLL patients (Patient 1, daily dose 400 mg) was 22.8 months; in the assay on CLL patients (Patient 2, daily dose 400 mg), 7.1 months; in the assay with CLL patients (Patient 3, daily dose 400 mg) it was 16.4 months; in the assay on CLL patients (Patient 4, daily dose 400 mg), 5.1 months; in the assay with CLL patients (Patient 5, daily dose 400 mg), 8.2 months; with CLL patients (Patient 6, daily dose 1200 mg then 400 mg) it was 22.8 months.

For `CC[C@H]1/C=C/C=C/C[C@@H](C)[C@H](O)[C@@](C)(O)C(=O)[C@@H](C)[C@H](O)[C@@H](C)C(=O)[C@@H](C)[C@H](O)[C@@H](C)/C=C/C(=O)O[C@@H]2[C@H](C)[C@H](CC1)O[C@]1(CC[C@H](C)[C@H](C[C@@H](C)O)O1)[C@H]2C` [oligomycin], the “restoration of venetoclax sensitivity” value with OCI-Ly1-R cells was “restore sensitivity to venetoclax”. The “sensitivity to the combination with venetoclax vs control cells” value in assay [4] is given as “more sensitive”.

Take `Cc1c(-c2c(-c3ccc(F)o3)sc3ncnc(O[C@H](Cc4ccccc4OCc4ccnn4CC(F)(F)F)C(=O)O)c23)ccc(OCCN2CCN(C)CC2)c1Cl` [S63845]: the “combination index (synergy with venetoclax)” value with OCI-Ly1-S cells [1] (combination with venetoclax, OCI-Ly1-S cells, Chou-Talalay method) is on record as less than 1. In addition, the synergy with venetoclax entry with OCI-Ly1-R cells (OCI-Ly-R cells) is recorded as “synergized”. Further, the “restoration of venetoclax sensitivity” value in the assay on OCI-Ly1-R cells was “restore venetoclax sensitivity”.

With `COC(=O)C[C@H](NC(=O)[C@H](C)NC(=O)[C@@H](NC(=O)OCc1ccccc1)C(C)C)C(=O)CF` [zVAD] (Cbz-Val-Ala-Asp(OMe)-CH2F), the “prevention of venetoclax impact on OXPHOS” value with OCI-Ly1-S cells [3] (1 h pre-treatment with zVAD-FMK before venetoclax) was “not fully prevented”.

Usually IC50 stands for the concentration that gives 50% inhibition.
